The values below come from US8106055B2, “Substituted amide compounds” (Gruenenthal GmbH, priority 2007, dated 2012).

For assay [1], the target named is T1, human bradykinin 1 receptor (B1R) (Homo sapiens, UniProt P46663).
T1 construct: expressed in transfected cells; host or cells: CHO K1 cells
T1 sequence (P46663 1-353): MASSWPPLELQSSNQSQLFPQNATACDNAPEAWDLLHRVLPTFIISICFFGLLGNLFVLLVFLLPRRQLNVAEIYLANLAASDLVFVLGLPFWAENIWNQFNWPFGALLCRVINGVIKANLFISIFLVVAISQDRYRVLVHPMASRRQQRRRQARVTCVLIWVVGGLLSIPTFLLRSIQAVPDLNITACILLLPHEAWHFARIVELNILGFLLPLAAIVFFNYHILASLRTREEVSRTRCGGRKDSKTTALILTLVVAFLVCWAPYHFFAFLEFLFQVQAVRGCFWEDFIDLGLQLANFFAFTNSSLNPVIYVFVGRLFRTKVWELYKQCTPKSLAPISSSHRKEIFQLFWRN
Briefly: Functional investigation on the human bradykinin 1 receptor (B1R), Ca2+ FLIPR assay in CHO K1 hB1R cells. It counts as cell-based. The conditions noted are these: B1R antagonism human; test substance 10 μM; Ca2+ FLIPR, CHO K1 hB1R cells. A digest of the protocol:
(§1)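 Fluo-4 Ca2+ readout, peak fluorescence. Stable CHO K1 transfectants; compound pre-incubated 10-20 min, then EC80 agonist—Lys-Des-Arg9-BK for hB1R, Des-Arg9-BK for rB1R. % inhibition vs maximal inhibition; IC50 from multiple concentrations, duplicate/triplicate, ≥2 independent runs.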

Assay [2] concerns the target T2, bradykinin 1 receptor (B1R) of the rat (Rattus norvegicus, UniProt P97583).
T2 construct: expressed in transfected cells; host or cells: CHO K1 cells
T2 sequence (P97583 1-337): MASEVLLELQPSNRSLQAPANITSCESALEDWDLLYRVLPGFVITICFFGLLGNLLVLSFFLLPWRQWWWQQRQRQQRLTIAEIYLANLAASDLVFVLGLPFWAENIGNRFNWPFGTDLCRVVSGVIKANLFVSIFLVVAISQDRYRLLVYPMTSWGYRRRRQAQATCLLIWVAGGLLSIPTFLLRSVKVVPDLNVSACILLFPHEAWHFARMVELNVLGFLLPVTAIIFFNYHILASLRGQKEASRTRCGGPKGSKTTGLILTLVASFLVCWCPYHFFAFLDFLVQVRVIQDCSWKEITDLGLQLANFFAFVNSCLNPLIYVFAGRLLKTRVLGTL
Briefly: Functional investigation on the rat bradykinin 1 receptor (B1R), Ca2+ FLIPR assay in CHO K1 rB1R cells. It counts as cell-based. Conditions: B1R antagonism rat; test substance 10 μM; Ca2+ FLIPR, CHO K1 rB1R cells. A digest of the protocol:
as §1

For the compound `Cc1ccc(S(=O)(=O)N(C)CCOCC(=O)NCCC2CCC(C(c3cccc(F)c3)N(C)C)CC2)cc1` (stereo not shown) [Example 240], the “B1R Ant. h [10 μM] % Inhibition” value in assay [1] was 2%. For the same compound, in assay [2], the “B1R Ant. r [10 μM] % Inhibition” value is −14%.
As for `CN(C)C(c1ccc(Cl)cc1)C1CCC(CCNC(=O)COCCN(C)S(=O)(=O)c2ccc(F)cc2)CC1` (stereo not shown) [Example 241], in assay [1], the “B1R Ant. h [10 μM] % Inhibition” value was 29%. For the same compound, in assay [2], the “B1R Ant. r [10 μM] % Inhibition” value came to 8%.
With `COc1ccc(S(=O)(=O)N(C)CCOCC(=O)NCC2CCC(C(c3ccccc3)N(C)C)CC2)cc1` (stereo not shown) [Example 242], in assay [1], the “B1R Ant. h [10 μM] % Inhibition” value is recorded as 39%. Further, the “B1R Ant. r [10 μM] % Inhibition” value in assay [2] was determined as 22%.
Take `COc1ccc(S(=O)(=O)N2CCCCC2COCC(=O)NC2CCC(C(c3cccs3)N(C)C)CC2)cc1` (stereo not shown) [Example 243]: the “B1R Ant. h [10 μM] % Inhibition” value in assay [1] is 16%. Further, in assay [2], the “B1R Ant. r [10 μM] % Inhibition” value was found to be 27%.
Turning to `CN(C)C(c1ccc(F)cc1)C1CCC(CCNC(=O)COC2CCCCC2N(C)S(=O)(=O)c2ccc(Cl)c(Cl)c2)CC1` (stereo not shown) [Example 244], the “B1R Ant. h [10 μM] % Inhibition” value in assay [1] came to 21%. Also, the “B1R Ant. r [10 μM] % Inhibition” value in assay [2] is reported as −5%.
For the compound `CN(C)C(c1cccc(F)c1)C1CCC(NC(=O)COCCN(C)S(=O)(=O)c2ccc(OC(F)(F)F)cc2)CC1` (stereo not shown) [Example 246], the “B1R Ant. h [10 μM] % Inhibition” value in assay [1] is reported as 10%. The “B1R Ant. r [10 μM] % Inhibition” value in assay [2] was 15%.
For `CN(C)C(c1cccc(F)c1)C1CCC(CCNC(=O)COC2CCN(S(=O)(=O)c3ccc(Cl)cc3)C2)CC1` (stereo not shown) [Example 247], in that order: 4% and 8%.
As for `COc1cc(C)c(S(=O)(=O)N(C)CCOCC(=O)NCC2CCC(C(c3cccc(F)c3)N(C)C)CC2)c(C)c1` (stereo not shown) [Example 248], the “B1R Ant. h [10 μM] % Inhibition” value in assay [1] is on record as 104%. The “B1R Ant. r [10 μM] % Inhibition” value in assay [2] stood at 102%.
For `CN(C)C(c1ccc(F)cc1)C1CCC(CNC(=O)COCCN(C)S(=O)(=O)c2ccc(Cl)cc2Cl)CC1` (stereo not shown) [Example 249], in that order: 104% and 55%.
The like results for `COc1ccc(S(=O)(=O)N(C)CCOCC(=O)NC2CCC(C(c3cccc(F)c3)N(C)C)CC2)cc1` (stereo not shown) [Example 250] were, in that order, 12% and 38%.
For `COc1cc(C)c(S(=O)(=O)N2CCC(OCC(=O)NC3CCC(C(c4cccc(F)c4)N(C)C)CC3)C2)c(C)c1` (stereo not shown) [Example 251], in that order: 81% and 87%.
For the compound `COc1cc(C)c(S(=O)(=O)N2CCC(OCC(=O)NCC3CCC(C(c4cccc(F)c4)N(C)C)CC3)C2)c(C)c1C` (stereo not shown) [Example 252], the “B1R Ant. h [10 μM] % Inhibition” value in assay [1] was found to be 59%. Further, the “B1R Ant. r [10 μM] % Inhibition” value in assay [2] was determined as 4%.
Turning to `COc1cc(C)c(S(=O)(=O)N2CCC(OCC(=O)NCCC3CCC(C(c4cccc(F)c4)N(C)C)CC3)C2)c(C)c1C` (stereo not shown) [Example 253], in assay [1], the “B1R Ant. h [10 μM] % Inhibition” value stood at 47%. The “B1R Ant. r [10 μM] % Inhibition” value in assay [2] worked out at 18%.
With `COc1cc(C)c(S(=O)(=O)N(CCOCC(=O)NCCC2CCC(C(c3cccs3)N(C)C)CC2)Cc2ccccc2)c(C)c1C` (stereo not shown) [Example 254], in assay [1], the “B1R Ant. h [10 μM] % Inhibition” value worked out at 27%. Further, the “B1R Ant. r [10 μM] % Inhibition” value in assay [2] was −1%.
In the case of `COc1ccc(S(=O)(=O)N2CCCCC2COCC(=O)NC2CCC(C(c3cccc(F)c3)N(C)C)CC2)cc1` (stereo not shown) [Example 255], in assay [1], the “B1R Ant. h [10 μM] % Inhibition” value is listed as 37%. The “B1R Ant. r [10 μM] % Inhibition” value in assay [2] turned out to be 47%.
As for `CN(C)C(c1ccc(F)cc1)C1CCC(NC(=O)COC2CCCCC2N(C)S(=O)(=O)c2ccc(Cl)c(Cl)c2)CC1` (stereo not shown) [Example 256], the “B1R Ant. h [10 μM] % Inhibition” value in assay [1] was found to be 52%. For the same compound, in assay [2], the “B1R Ant. r [10 μM] % Inhibition” value amounted to 1%.
Turning to `CN(C)C(c1cccc(F)c1)C1CCC(CNC(=O)COC2CCN(S(=O)(=O)c3ccc(Cl)cc3)C2)CC1` (stereo not shown) [Example 258], the “B1R Ant. h [10 μM] % Inhibition” value in assay [1] is −12%. For the same compound, in assay [2], the “B1R Ant. r [10 μM] % Inhibition” value amounted to 12%.
In the case of `CN(C)C(c1cccc(F)c1)C1CCC(CCNC(=O)COC2CCN(S(=O)(=O)c3ccc(Cl)cc3Cl)C2)CC1` (stereo not shown) [Example 259], the “B1R Ant. h [10 μM] % Inhibition” value in assay [1] was 72%. Also, the “B1R Ant. r [10 μM] % Inhibition” value in assay [2] was 25%.
As for `COc1ccc(S(=O)(=O)N2CCC(OCC(=O)NCC3CCC(C(c4ccc(Cl)cc4)N(C)C)CC3)C2)cc1OC` (stereo not shown) [Example 260], the “B1R Ant. h [10 μM] % Inhibition” value in assay [1] is −7%. Besides, in assay [2], the “B1R Ant. r [10 μM] % Inhibition” value is 9%.
Consider `COc1ccc(S(=O)(=O)N2CCCCC2COCC(=O)NC2CCC(C(c3cccs3)N(C)C)CC2)cc1OC` (stereo not shown) [Example 261], for which the “B1R Ant. h [10 μM] % Inhibition” value in assay [1] is reported as −28%. Besides, the “B1R Ant. r [10 μM] % Inhibition” value in assay [2] is −3%.
In the case of `COc1ccc(S(=O)(=O)N2CCC(OCC(=O)NCCC3CCC(C(c4cccc(F)c4)N(C)C)CC3)C2)cc1OC` (stereo not shown) [Example 262], the “B1R Ant. h [10 μM] % Inhibition” value in assay [1] is −6%. For the same compound, in assay [2], the “B1R Ant. r [10 μM] % Inhibition” value was found to be 36%.
As for `CN(C)C(c1ccc(Cl)cc1)C1CCC(CNC(=O)COCCN(C)S(=O)(=O)c2ccc(F)cc2)CC1` (stereo not shown) [Example 263], in assay [1], the “B1R Ant. h [10 μM] % Inhibition” value came out at 18%. Further, the “B1R Ant. r [10 μM] % Inhibition” value in assay [2] is reported as 32%.
For `Cc1cc(C)c(S(=O)(=O)N2CCC(OCC(=O)NCCC3CCC(C(c4cccc(F)c4)N(C)C)CC3)C2)c(C)c1` (stereo not shown) [Example 264], in that order: 77% and 59%.
The like results for `COc1cc(C)c(S(=O)(=O)N2CCC(OCC(=O)NCC3CCC(C(c4cccc(F)c4)N(C)C)CC3)C2)c(C)c1` (stereo not shown) [Example 265] were, in that order, 93% and 97%.
As for `CN(C)C(c1cccc(F)c1)C1CCC(NC(=O)COCC2CCCN(S(=O)(=O)c3ccccc3)C2)CC1` (stereo not shown) [Example 266], the “B1R Ant. h [10 μM] % Inhibition” value in assay [1] came to 4%. The “B1R Ant. r [10 μM] % Inhibition” value in assay [2] came out at 24%.
In the case of `CN(C)C(c1ccc(F)cc1)C1CCC(CNC(=O)COCC2CCCN2S(=O)(=O)c2ccc(Cl)c(Cl)c2)CC1` (stereo not shown) [Example 267], the “B1R Ant. h [10 μM] % Inhibition” value in assay [1] is on record as 68%. For the same compound, the “B1R Ant. r [10 μM] % Inhibition” value in assay [2] is given as −13%.
Regarding `COc1ccc(S(=O)(=O)N2CCCC2COCC(=O)NC2CCC(C(c3cccc(F)c3)N(C)C)CC2)cc1` (stereo not shown) [Example 268], in assay [1], the “B1R Ant. h [10 μM] % Inhibition” value turned out to be 7%. Besides, the “B1R Ant. r [10 μM] % Inhibition” value in assay [2] is on record as 25%.
As to `CN(C)C(c1ccc(Cl)cc1)C1CCC(CNC(=O)COC2CCCCC2N(C)S(=O)(=O)c2ccc(Cl)c(Cl)c2)CC1` (stereo not shown) [Example 269], in assay [1], the “B1R Ant. h [10 μM] % Inhibition” value amounted to 7%. In addition, in assay [2], the “B1R Ant. r [10 μM] % Inhibition” value is given as −3%.
For `CN(C)C(c1cccc(F)c1)C1CCC(NC(=O)COC2CCN(S(=O)(=O)c3ccccc3)C2)CC1` (stereo not shown) [Example 271], in that order: −7% and −13%.
The like results for `Cc1ccc(S(=O)(=O)N2CCC(OCC(=O)NCCC3CCC(C(c4cccs4)N(C)C)CC3)C2)cc1` (stereo not shown) [Example 272] were, in that order, 20% and 32%.
On to `Cc1ccc(S(=O)(=O)N(C)CCOCC(=O)NCC2CCC(C(c3ccc(Cl)cc3)N(C)C)CC2)cc1` (stereo not shown) [Example 273], for which the “B1R Ant. h [10 μM] % Inhibition” value in assay [1] was determined as 25%. In addition, the “B1R Ant. r [10 μM] % Inhibition” value in assay [2] is 37%.
As to `CN(C)C(c1ccc(Cl)cc1)C1CCC(CCNC(=O)COCCN(C)S(=O)(=O)c2c(Cl)cccc2Cl)CC1` (stereo not shown) [Example 274], the “B1R Ant. h [10 μM] % Inhibition” value in assay [1] was determined as 100%. The “B1R Ant. r [10 μM] % Inhibition” value in assay [2] is reported as 61%.
